In ChEMBL document CHEMBL1201862, “PubChem BioAssay data set” (2004):
Active and inactive are the calls of the source.

Assays:
Estrogen receptor beta [1] = molecular target: T1, Estrogen receptor beta (Homo sapiens, UniProt Q92731);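 also: recombinant ER-beta bound to coactivator SRC1 peptide in presence of estradiol agonist; inhibitors block coactivator peptide binding and lower the FRET signal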
Estrogen receptor beta [2] = molecular target: T1, Estrogen receptor beta; experiment: ERβ–SRC-3 coactivator interaction inhibitors, confirmation, orthogonal assay, biochemical, ELISA, streptavidin-HRP readout (AID 1060)
[3] = molecular target: Voltage-dependent T-type calcium channel subunit alpha-1H (Homo sapiens, UniProt O95180); type: functional;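 also: channel activity triggered by adding a high calcium stimulation buffer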
[4] = molecular target: T2, Short transient receptor potential channel 4 (Mus musculus, UniProt Q9QUQ5); experiment: mouse TRPC4 channel activators, dose response, cell-based, HEK293 TRPC4/mu-opioid, Fluo-4 calcium (AID 434937); type: functional
T2 sequence (Q9QUQ5 whole entry): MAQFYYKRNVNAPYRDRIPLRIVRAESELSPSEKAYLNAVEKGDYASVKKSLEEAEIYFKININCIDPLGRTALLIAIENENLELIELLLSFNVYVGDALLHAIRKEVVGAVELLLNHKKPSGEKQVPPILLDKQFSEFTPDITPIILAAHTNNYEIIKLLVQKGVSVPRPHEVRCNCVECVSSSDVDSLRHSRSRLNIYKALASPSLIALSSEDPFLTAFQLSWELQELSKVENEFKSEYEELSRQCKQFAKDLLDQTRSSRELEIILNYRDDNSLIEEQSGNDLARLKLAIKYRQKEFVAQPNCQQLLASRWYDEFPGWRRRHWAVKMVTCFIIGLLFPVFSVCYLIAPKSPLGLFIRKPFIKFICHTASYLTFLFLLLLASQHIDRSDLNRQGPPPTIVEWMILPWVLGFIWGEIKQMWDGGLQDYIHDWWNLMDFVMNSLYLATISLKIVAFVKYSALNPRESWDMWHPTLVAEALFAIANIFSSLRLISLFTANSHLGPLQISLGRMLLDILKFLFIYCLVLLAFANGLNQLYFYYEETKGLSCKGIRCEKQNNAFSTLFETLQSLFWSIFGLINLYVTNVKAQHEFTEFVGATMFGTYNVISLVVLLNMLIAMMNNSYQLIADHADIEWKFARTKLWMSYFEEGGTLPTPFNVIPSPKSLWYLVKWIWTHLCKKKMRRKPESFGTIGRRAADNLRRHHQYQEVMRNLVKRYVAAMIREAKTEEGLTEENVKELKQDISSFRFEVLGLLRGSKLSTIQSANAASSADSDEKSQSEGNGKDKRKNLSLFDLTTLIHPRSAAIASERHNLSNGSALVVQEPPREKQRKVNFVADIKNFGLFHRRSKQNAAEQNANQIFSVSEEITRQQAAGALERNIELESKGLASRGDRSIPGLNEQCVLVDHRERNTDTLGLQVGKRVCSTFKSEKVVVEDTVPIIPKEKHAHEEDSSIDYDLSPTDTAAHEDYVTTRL

[5] = molecular target: T3, RNA-binding protein pos-1 (Caenorhabditis elegans, UniProt G5EF15); experiment: inhibitors of POS-1/mex-3 RNA binding, dose response, biochemical, fluorescence polarization (AID 1964);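 also: purified POS-1 fused to maltose binding protein made in E. coli; potency of compounds blocking POS-1 binding to fluorescent RNA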
T3 sequence (G5EF15 whole entry): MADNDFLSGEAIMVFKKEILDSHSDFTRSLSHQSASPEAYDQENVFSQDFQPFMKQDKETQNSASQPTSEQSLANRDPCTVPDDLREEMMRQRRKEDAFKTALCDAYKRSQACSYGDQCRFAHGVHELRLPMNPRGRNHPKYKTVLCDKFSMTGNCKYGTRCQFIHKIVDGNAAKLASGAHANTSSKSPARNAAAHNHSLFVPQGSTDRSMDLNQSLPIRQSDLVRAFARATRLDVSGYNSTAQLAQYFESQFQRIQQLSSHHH

[6] = inhibitors of Vif binding to APOBEC3G peptide, primary screen, biochemical, TR-FRET, GST-Vif 1-94, biotin-A3G peptide, dose response retest (AID 1117319); type: functional;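 also: TR-FRET signal of purified GST-Vif binding a biotinylated A3G peptide; inhibitors lower the FRET signal by blocking Vif and A3G binding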
[7] = molecular target: T4, Zinc finger protein mex-5 (Caenorhabditis elegans, UniProt Q9XUB2); experiment: MEX-5/TCR-2 RNA interaction inhibitors, dose response, biochemical, C. elegans, fluorescence polarization (AID 1960)
T4 sequence (Q9XUB2 whole entry): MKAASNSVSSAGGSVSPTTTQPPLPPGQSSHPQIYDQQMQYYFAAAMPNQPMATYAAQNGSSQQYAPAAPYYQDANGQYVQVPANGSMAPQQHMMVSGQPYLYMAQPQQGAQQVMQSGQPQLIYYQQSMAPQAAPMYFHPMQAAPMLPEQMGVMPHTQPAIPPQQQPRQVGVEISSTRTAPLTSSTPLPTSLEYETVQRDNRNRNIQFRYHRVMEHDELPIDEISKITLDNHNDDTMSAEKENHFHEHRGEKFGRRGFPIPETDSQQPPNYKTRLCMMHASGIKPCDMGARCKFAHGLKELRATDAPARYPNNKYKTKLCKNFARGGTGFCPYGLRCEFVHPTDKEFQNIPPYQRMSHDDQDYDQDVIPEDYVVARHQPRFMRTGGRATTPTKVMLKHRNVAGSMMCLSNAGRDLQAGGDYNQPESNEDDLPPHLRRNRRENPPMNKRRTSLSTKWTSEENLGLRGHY

[8] = molecular target: T5, Heat shock factor protein 1 (Mus musculus, UniProt P38532); experiment: inhibition of MG132-induced HSE-luciferase signal, confirmation, cell-based, NIH3T3, luminescence, dose retest (AID 2382); type: functional;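 also: NIH3T3 fibroblasts with HSF1-driven luciferase reporter stressed by proteasome inhibitor MG132; luminescence from HSF1-driven luciferase expression after 8 hours of MG132 stress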
T5 sequence (P38532 whole entry): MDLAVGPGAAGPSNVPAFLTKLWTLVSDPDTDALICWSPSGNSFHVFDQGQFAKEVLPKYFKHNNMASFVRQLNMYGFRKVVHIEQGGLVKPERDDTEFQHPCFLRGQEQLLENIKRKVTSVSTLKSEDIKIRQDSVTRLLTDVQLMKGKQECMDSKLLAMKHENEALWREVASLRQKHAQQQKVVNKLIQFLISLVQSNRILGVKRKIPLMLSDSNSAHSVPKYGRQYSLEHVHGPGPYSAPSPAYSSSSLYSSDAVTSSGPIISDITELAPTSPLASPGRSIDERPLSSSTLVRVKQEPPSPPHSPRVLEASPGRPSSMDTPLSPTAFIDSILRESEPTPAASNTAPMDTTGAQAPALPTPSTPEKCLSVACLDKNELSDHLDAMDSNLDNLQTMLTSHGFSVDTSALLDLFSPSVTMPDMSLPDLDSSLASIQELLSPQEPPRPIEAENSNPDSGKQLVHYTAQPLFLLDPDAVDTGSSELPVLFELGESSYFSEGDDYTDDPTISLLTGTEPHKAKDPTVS

[9] = Vero E6 cell cytotoxicity, dose response, cytotoxicity control for non-replicating M. tuberculosis project, secondary assay (AID 492998); type: functional, VeroE6; details: Vero C1008
[10] = THP-1 cell cytotoxicity, dose response, cytotoxicity control for non-replicating M. tuberculosis project (AID 489025); type: functional
cells [11] = type: functional
Vero = experiment: cells; type: functional; details: Chlorocebus sabaeus
[12] = molecular target: T6, Polyadenylate-binding protein 1 (Homo sapiens, UniProt P11940); experiment: PABP1 MLLE–PAM2 interaction inhibitors, dose response, miRNA deadenylation inhibitor project, biochemical, fluorescence polarization, Cy5-PAM2 peptide, secondary (AID 602260); type: functional; details: read-out: IC50_Mean
[13] = molecular target: T6, Polyadenylate-binding protein 1; experiment: PABP1 MLLE–PAM2 binding inhibitor potency, dose response, biochemical, fluorescence polarization, FITC-PAM2 peptide (AID 602259); type: functional; details: read-out: IC50_Mean
cells [14] = type: functional, cell-based
INS1 = experiment: beta cell apoptosis inhibitors, cytokine rescue, dose response, luminescence, retest (AID 449756); type: functional, cell-based; details: Rattus norvegicus;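 also: cell death triggered by IL-1 beta plus TNF-alpha plus IFN-gamma mixture; protective hits raise ATP signal compared with cytokine alone wells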
cells [15] = type: functional, cell-based; remark: listed apart in the source
[16] = molecular target: T7, Calpain-2 catalytic subunit (Sus scrofa, UniProt P43367); experiment: pig calpain II inhibitor potency, dose response, biochemical, fluorogenic peptide substrate (AID 1420); type: functional
T7 sequence (P43367 whole entry): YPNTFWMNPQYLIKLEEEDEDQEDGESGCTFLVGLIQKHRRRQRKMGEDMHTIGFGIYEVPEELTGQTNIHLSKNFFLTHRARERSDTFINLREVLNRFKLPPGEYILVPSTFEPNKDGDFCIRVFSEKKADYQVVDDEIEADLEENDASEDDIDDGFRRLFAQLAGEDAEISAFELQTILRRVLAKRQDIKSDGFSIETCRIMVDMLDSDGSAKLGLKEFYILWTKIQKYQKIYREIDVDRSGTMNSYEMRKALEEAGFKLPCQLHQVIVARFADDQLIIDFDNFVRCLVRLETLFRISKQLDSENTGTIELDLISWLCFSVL

[17] = HepG2 cell cytotoxicity, dose response, cytotoxicity control for non-replicating M. tuberculosis project (AID 489018); type: functional; details: Mycobacterium tuberculosis

Sequence of Voltage-dependent T-type calcium channel subunit alpha-1H (O95180 whole entry): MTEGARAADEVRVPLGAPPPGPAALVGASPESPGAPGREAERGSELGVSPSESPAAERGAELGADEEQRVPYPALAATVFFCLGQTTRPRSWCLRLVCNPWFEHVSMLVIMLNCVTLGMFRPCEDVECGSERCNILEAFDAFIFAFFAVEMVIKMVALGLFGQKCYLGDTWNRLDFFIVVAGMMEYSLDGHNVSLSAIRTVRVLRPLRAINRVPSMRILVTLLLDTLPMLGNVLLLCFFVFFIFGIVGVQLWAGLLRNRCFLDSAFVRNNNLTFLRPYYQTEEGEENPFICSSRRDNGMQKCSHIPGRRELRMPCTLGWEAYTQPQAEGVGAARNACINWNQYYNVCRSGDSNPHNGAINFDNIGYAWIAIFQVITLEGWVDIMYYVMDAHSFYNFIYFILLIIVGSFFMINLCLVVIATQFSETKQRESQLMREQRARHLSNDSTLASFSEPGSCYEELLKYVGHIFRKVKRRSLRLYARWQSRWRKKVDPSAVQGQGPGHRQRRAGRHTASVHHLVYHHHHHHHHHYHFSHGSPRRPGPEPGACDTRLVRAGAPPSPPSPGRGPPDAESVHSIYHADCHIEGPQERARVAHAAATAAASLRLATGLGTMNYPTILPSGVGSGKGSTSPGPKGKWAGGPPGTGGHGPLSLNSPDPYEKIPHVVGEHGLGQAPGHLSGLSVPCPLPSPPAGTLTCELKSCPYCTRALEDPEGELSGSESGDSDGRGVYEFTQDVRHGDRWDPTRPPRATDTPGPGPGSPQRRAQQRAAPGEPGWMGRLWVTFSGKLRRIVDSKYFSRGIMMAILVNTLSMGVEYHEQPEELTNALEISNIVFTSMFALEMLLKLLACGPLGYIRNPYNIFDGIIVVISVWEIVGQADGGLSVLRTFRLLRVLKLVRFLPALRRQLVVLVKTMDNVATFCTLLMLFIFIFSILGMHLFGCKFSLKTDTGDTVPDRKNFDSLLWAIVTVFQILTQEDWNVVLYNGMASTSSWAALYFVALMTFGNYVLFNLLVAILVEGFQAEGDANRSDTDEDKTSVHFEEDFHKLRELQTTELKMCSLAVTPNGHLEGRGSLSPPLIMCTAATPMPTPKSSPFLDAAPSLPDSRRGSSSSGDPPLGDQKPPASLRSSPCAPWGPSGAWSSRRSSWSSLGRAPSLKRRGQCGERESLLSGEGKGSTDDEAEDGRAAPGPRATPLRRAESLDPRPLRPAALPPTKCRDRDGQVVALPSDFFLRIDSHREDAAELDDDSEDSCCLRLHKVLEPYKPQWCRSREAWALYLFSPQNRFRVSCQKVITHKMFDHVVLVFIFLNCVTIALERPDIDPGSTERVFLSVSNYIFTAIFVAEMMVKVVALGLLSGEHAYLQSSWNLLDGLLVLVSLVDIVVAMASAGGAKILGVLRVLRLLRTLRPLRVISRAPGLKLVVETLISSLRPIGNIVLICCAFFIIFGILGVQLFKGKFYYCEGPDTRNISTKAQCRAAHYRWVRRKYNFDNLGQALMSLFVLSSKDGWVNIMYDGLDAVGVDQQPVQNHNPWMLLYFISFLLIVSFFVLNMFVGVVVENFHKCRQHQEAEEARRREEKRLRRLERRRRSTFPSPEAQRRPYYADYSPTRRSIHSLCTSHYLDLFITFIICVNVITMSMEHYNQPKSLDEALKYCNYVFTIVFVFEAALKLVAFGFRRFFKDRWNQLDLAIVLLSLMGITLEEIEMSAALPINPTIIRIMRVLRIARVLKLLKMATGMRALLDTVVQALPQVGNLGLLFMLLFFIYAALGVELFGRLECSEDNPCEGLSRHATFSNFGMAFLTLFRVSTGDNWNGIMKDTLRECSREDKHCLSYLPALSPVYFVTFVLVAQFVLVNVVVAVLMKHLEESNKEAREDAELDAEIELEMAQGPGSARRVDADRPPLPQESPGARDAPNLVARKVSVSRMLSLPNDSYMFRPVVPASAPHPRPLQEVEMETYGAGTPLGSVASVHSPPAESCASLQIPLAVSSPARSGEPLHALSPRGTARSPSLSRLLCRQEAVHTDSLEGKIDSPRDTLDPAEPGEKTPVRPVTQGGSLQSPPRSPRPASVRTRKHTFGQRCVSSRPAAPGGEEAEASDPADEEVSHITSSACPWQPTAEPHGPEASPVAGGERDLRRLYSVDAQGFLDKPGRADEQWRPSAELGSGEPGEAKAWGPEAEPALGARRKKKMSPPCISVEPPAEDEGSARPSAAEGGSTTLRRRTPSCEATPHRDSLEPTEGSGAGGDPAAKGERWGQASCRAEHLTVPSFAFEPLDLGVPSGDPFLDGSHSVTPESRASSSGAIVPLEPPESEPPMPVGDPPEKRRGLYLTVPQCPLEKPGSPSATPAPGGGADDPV
T1 sequence (Q92731 whole entry): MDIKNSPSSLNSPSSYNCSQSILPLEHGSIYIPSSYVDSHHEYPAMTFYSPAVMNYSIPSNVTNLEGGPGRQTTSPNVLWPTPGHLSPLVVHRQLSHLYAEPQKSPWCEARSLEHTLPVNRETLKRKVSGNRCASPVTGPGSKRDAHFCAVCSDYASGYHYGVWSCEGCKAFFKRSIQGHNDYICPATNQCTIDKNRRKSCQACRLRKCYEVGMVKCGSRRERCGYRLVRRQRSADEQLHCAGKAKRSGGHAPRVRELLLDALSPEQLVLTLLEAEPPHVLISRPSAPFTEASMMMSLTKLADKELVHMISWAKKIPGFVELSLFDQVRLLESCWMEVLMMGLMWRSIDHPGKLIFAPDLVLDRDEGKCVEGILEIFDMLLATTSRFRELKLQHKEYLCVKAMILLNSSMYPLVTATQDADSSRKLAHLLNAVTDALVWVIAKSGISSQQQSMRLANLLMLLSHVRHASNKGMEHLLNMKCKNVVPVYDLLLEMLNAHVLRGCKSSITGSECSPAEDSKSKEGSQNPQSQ
T6 sequence (P11940 whole entry): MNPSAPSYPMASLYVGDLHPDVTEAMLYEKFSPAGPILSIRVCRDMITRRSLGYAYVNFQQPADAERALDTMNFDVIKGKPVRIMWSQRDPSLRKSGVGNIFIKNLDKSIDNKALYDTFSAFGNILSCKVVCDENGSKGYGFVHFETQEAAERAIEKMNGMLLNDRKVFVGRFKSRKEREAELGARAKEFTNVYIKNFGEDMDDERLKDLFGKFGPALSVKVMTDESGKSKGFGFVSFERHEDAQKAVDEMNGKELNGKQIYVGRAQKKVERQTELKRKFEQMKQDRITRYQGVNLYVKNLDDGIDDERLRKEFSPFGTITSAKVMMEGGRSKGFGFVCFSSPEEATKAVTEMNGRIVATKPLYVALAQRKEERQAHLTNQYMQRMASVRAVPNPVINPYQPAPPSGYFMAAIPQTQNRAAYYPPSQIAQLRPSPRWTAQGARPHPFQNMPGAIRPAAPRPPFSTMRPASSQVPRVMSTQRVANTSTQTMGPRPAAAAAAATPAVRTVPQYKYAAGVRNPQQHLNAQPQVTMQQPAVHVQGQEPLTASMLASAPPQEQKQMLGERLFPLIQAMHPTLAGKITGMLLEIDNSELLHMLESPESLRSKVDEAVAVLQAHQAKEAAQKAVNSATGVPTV

CCOC(=O)Cc1csc(NC(=O)Cc2cccs2)n1
IC50 (Estrogen receptor beta [1]): 5.81 µM (active) | IC50 (Estrogen receptor beta [2]): 3.22 µM (not active)

CCC(=O)N1CCN(c2ccc(Cl)cc2NC(=O)Cc2ccccc2)CC1
EC50 [3]: 10.1 µM (active)

CCCCN(CCCC)S(=O)(=O)c1ccc(C(=O)Nc2nnc(CSC)o2)cc1
EC50 [3]: 2.82 µM (active)

Cc1nn(Cc2ccc(Cl)c(Cl)c2)c(C)c1NC(=O)c1cc(CC(C)C)on1
EC50 [3]: 1.28 µM (active)

Cc1ccc(OCC(=O)N(C)CCc2ccccn2)cc1
EC50 [4]: 6.68 µM (active)

CCOC(=O)C1Nc2ccc(Br)cc2C2C=CCC12 (centres undefined)
EC50 [5]: > 300 µM (not active) | IC50 [6]: > 100 µM (active) | EC50 [7]: 46 µM (active)

CC(C)(C)c1ccccc1NC(=O)NC1CCN(Cc2c(F)cccc2Cl)CC1
EC50 [8]: > 195 µM (not active) | EC50 [4]: 2.11 µM (active)

Cc1noc(C)c1CCC(=O)NC1CCCN(Cc2ccc(CC(C)C)cc2)C1 (centres undefined)
EC50 [4]: 3.76 µM (active)

Cc1cc2ncn(CCCCOc3ccccc3)c2cc1C
EC50 [3]: 7.27 µM (active)

CCN1CSC(=S)N(Cc2ccc(OC)cc2)C1
CC50 [9]: 6.33 µM (active) | CC50 [10]: 9.8 µM (active) | IC50 (cells [11]): 11.8 µM (active) | CC50 (Vero): 12.1 µM (active) | IC50 [12]: > 66 µM (inactive) | IC50 [13]: > 66 µM (inactive)

COc1ccc(C(=O)N/N=C(\c2ccccc2)c2ccccn2)cc1
EC50 (cells [14]): 38.6 µM (active) | AC50 (INS1): 1.18 µM (active) | EC50 (cells [15]): 10.3 µM (active) | IC50 [16]: > 50 µM (not active) | CC50 [9]: 2.39 µM (active) | CC50 [10]: 0.517 µM (active) | IC50 (cells [11]): 8.09 µM (active) | CC50 (Vero): 3.02 µM (active) | CC50 [17]: 9.02 µM (active)

CN(C)C(CNC(=O)CCS(=O)(=O)c1ccccc1)c1ccccc1 (centres undefined)
EC50 [4]: 0.376 µM (active)
